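A five-concentration, 48-hour dose response in 96-well plates underlies each endpoint, interpolated linearly between surrounding concentrations. GI50 is the concentration that inhibits growth by half.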 Active and inactive are the calls of the source. Cut-off read from the data, not from the text of the source: active = GI50 up to about 1.1 µM and inactive = higher.
What was measured:
Test in all cases: DTP human tumour cell line panel, 48 h
786-0 = test system: 786-0
A498 = test system: A498
ACHN = test system: ACHN
BT-549 = test system: BT-549
CAKI-1 = test system: CAKI-1
CCRF-CEM = test system: CCRF-CEM
DLD-1 = test system: DLD-1
DMS-273 = test system: DMS-273
DU-145 = test system: DU-145
EKVX = test system: EKVX
HCC 2998 = test system: HCC 2998
HCT-15 = test system: HCT-15
HL-60 = test system: HL-60
HOP-62 = test system: HOP-62
HT-29 = test system: HT-29
Hs-578T = test system: Hs-578T
K562 = test system: K562
KM12 = test system: KM12
LOX IMVI = test system: LOX IMVI
M14 = test system: M14
MCF7 = test system: MCF7
MDA-MB-231 = test system: MDA-MB-231
MDA-MB-435 = test system: MDA-MB-435
MDA-N = test system: MDA-N
MOLT-4 = test system: MOLT-4
Malme-3M = test system: Malme-3M
NCI-H23 = test system: NCI-H23
NCI-H460 = test system: NCI-H460
NCI-H522 = test system: NCI-H522
OVCAR-3 = test system: OVCAR-3
OVCAR-5 = test system: OVCAR-5
PC-3 = test system: PC-3
RPMI-8226 = test system: RPMI-8226
RXF 393 = test system: RXF 393
SF-268 = test system: SF-268
SF-295 = test system: SF-295
SF-539 = test system: SF-539
SK-MEL-28 = test system: SK-MEL-28
SK-MEL-2 = test system: SK-MEL-2
SK-MEL-5 = test system: SK-MEL-5
SN12C = test system: SN12C
SNB-19 = test system: SNB-19
SNB-75 = test system: SNB-75
SR = test system: SR
SW-620 = test system: SW-620
T47D = test system: T47D
TK-10 = test system: TK-10
U-251 = test system: U-251
UACC-257 = test system: UACC-257
A549 = test system: A549
COLO 205 = test system: COLO 205
HCT-116 = test system: HCT-116
HOP-92 = test system: HOP-92
IGROV-1 = test system: IGROV-1
NCI-H226 = test system: NCI-H226
NCI/ADR-RES = test system: NCI/ADR-RES
OVCAR-4 = test system: OVCAR-4
OVCAR-8 = test system: OVCAR-8
SK-OV-3 = test system: SK-OV-3
UACC-62 = test system: UACC-62
UO-31 = test system: UO-31

Measured: GI50

CCN(CC)CC[n+]1ccc2c(C)c3[nH]c4ccccc4c3c(C)c2c1
inactive: A498 3.04 µM | ACHN 5 µM | BT-549 1.3 µM | CAKI-1 1.99 µM | DLD-1 1.87 µM | HOP-62 1.22 µM | OVCAR-5 1.61 µM | RXF 393 1.55 µM | TK-10 4.41 µM
22 µM: HCT-15
active: 786-0 0.56 µM | CCRF-CEM 0.204 µM | DMS-273 338 nM | DU-145 0.422 µM | EKVX 1.02 µM | HCC 2998 0.468 µM | HL-60 0.168 µM | HT-29 0.684 µM | Hs-578T 0.0405 µM | K562 0.214 µM | KM12 0.338 µM | LOX IMVI 0.689 µM | M14 0.923 µM | MCF7 0.522 µM | MDA-MB-231 0.65 µM | MDA-MB-435 0.635 µM | MDA-N 0.675 µM | MOLT-4 0.106 µM | Malme-3M 0.662 µM | NCI-H23 0.546 µM | NCI-H460 0.251 µM | NCI-H522 0.406 µM | OVCAR-3 0.236 µM | PC-3 0.553 µM | RPMI-8226 0.367 µM | SF-268 0.164 µM | SF-295 0.789 µM | SF-539 0.612 µM | SK-MEL-28 0.533 µM | SK-MEL-2 0.428 µM | SK-MEL-5 0.401 µM | SN12C 0.285 µM | SNB-19 0.144 µM | SNB-75 0.276 µM | SR 0.608 µM | SW-620 0.51 µM | T47D 0.188 µM | U-251 0.163 µM | UACC-257 0.713 µM

NS(=O)(=O)c1ccc(NNc2c3ccccc3nc3c(C(=O)Nc4ccc(S(N)(=O)=O)cc4)cccc23)cc1
> 100 µM: HCT-15
inactive: 786-0 15.6 µM | A498 > 100 µM | A549 > 100 µM | ACHN 27.7 µM | BT-549 5.85 µM | CAKI-1 > 100 µM | CCRF-CEM 14.5 µM | COLO 205 39.9 µM | DU-145 43.8 µM | EKVX 42.8 µM | HCC 2998 17.4 µM | HCT-116 22.1 µM | HL-60 22.3 µM | HOP-62 57.3 µM | HOP-92 5.07 µM | HT-29 26.9 µM | Hs-578T 19.1 µM | IGROV-1 19.3 µM | K562 21.2 µM | KM12 27.9 µM | LOX IMVI 11.5 µM | M14 55.3 µM | MCF7 12.9 µM | MDA-MB-231 21.6 µM | MDA-MB-435 49.3 µM | MDA-N 65 µM | MOLT-4 7.85 µM | Malme-3M 23.8 µM | NCI-H226 37.6 µM | NCI-H23 28.8 µM | NCI-H460 24.2 µM | NCI-H522 15.2 µM | NCI/ADR-RES > 100 µM | OVCAR-3 23 µM | OVCAR-4 19.6 µM | OVCAR-5 62.7 µM | OVCAR-8 26.5 µM | PC-3 30.2 µM | RPMI-8226 24.9 µM | RXF 393 6.73 µM | SF-268 16.2 µM | SF-295 37.7 µM | SF-539 25.7 µM | SK-MEL-28 48.6 µM | SK-MEL-2 13 µM | SK-MEL-5 34.9 µM | SK-OV-3 50 µM | SN12C 31.5 µM | SNB-19 33.5 µM | SNB-75 14.5 µM | SR 9.42 µM | SW-620 15.3 µM | T47D 6.27 µM | TK-10 > 100 µM | U-251 14.5 µM | UACC-257 98.4 µM | UACC-62 22.2 µM | UO-31 63 µM

COC1(OC)C2(Cl)C(Cl)=C(Cl)C1(Cl)C1COCC12 (configuration not stated)
> 100 µM: HCT-15
inactive: 786-0 > 100 µM | A498 > 100 µM | A549 > 100 µM | ACHN > 100 µM | BT-549 > 100 µM | CAKI-1 > 100 µM | CCRF-CEM > 100 µM | COLO 205 > 100 µM | DU-145 13.4 µM | HCC 2998 > 100 µM | HL-60 > 61.4 µM | HOP-62 > 100 µM | HOP-92 > 81.3 µM | HT-29 > 100 µM | Hs-578T > 100 µM | IGROV-1 > 100 µM | K562 > 88.5 µM | KM12 > 100 µM | LOX IMVI > 100 µM | M14 > 100 µM | MCF7 > 100 µM | MDA-MB-231 > 100 µM | MDA-MB-435 30.8 µM | MDA-N > 20.4 µM | MOLT-4 > 100 µM | Malme-3M > 100 µM | NCI-H226 > 100 µM | NCI-H23 > 45 µM | NCI-H460 > 100 µM | NCI-H522 > 100 µM | NCI/ADR-RES > 100 µM | OVCAR-3 > 100 µM | OVCAR-4 > 100 µM | OVCAR-5 > 100 µM | OVCAR-8 > 100 µM | PC-3 > 100 µM | RPMI-8226 > 72.4 µM | RXF 393 > 100 µM | SF-268 > 100 µM | SF-295 > 100 µM | SF-539 > 100 µM | SK-MEL-28 > 38.7 µM | SK-MEL-2 > 100 µM | SK-MEL-5 > 100 µM | SK-OV-3 > 100 µM | SN12C > 100 µM | SNB-19 > 100 µM | SNB-75 > 100 µM | SR > 75.3 µM | SW-620 > 100 µM | T47D > 100 µM | TK-10 > 40.7 µM | U-251 > 44.5 µM | UACC-257 > 100 µM | UACC-62 > 100 µM | UO-31 > 100 µM

CCOC(=O)c1cc(-c2ccc(OC)c(OC)c2)cn1C
inactive: 786-0 > 10 µM | A498 > 10 µM | A549 > 10 µM | ACHN > 10 µM | BT-549 > 10 µM | CAKI-1 > 10 µM | CCRF-CEM > 10 µM | COLO 205 > 10 µM | DU-145 > 10 µM | EKVX > 10 µM | HCC 2998 > 10 µM | HCT-116 > 10 µM | HL-60 > 10 µM | HOP-62 > 10 µM | HOP-92 > 10 µM | HT-29 > 10 µM | Hs-578T 7.03 µM | IGROV-1 > 10 µM | K562 > 10 µM | KM12 > 10 µM | LOX IMVI > 10 µM | M14 > 10 µM | MCF7 > 10 µM | MDA-MB-231 > 10 µM | MDA-MB-435 > 10 µM | MDA-N > 10 µM | MOLT-4 > 10 µM | Malme-3M > 10 µM | NCI-H226 > 10 µM | NCI-H23 > 10 µM | NCI-H460 > 10 µM | NCI-H522 > 10 µM | NCI/ADR-RES > 10 µM | OVCAR-3 > 10 µM | OVCAR-4 > 10 µM | OVCAR-5 > 10 µM | OVCAR-8 > 10 µM | PC-3 > 10 µM | RPMI-8226 > 10 µM | RXF 393 > 10 µM | SF-268 > 10 µM | SF-295 > 10 µM | SF-539 > 10 µM | SK-MEL-28 > 10 µM | SK-MEL-2 > 10 µM | SK-MEL-5 > 10 µM | SK-OV-3 > 10 µM | SN12C > 10 µM | SNB-19 > 10 µM | SNB-75 4.43 µM | SR > 10 µM | T47D > 10 µM | TK-10 > 10 µM | U-251 > 10 µM | UACC-257 > 10 µM | UACC-62 > 10 µM | UO-31 > 10 µM
> 10 µM: HCT-15

Cc1cc(Cl)ccc1Nc1sc(C(=O)c2cc3cc(Cl)ccc3o2)c(N)c1C#N
inactive: 786-0 3.83 µM | A498 5.6 µM | A549 5.98 µM | ACHN 15.4 µM | BT-549 > 51.9 µM | CAKI-1 25.1 µM | CCRF-CEM > 27.1 µM | COLO 205 > 69.8 µM | DU-145 18.8 µM | EKVX 17.9 µM | HCC 2998 3.1 µM | HCT-116 18.4 µM | HL-60 > 80.5 µM | HOP-62 4.86 µM | HOP-92 47 µM | HT-29 8.67 µM | Hs-578T > 100 µM | IGROV-1 16.3 µM | K562 18.7 µM | KM12 6.15 µM | LOX IMVI > 100 µM | M14 9.57 µM | MCF7 8.38 µM | MDA-MB-231 4.99 µM | MDA-MB-435 8.71 µM | MDA-N 79.3 µM | MOLT-4 > 53.3 µM | Malme-3M 80.5 µM | NCI-H226 > 87.7 µM | NCI-H23 7.41 µM | NCI-H460 5.96 µM | NCI-H522 3.42 µM | NCI/ADR-RES 1.82 µM | OVCAR-3 12.5 µM | OVCAR-4 3.59 µM | OVCAR-5 > 43.7 µM | OVCAR-8 11.4 µM | PC-3 6.08 µM | RPMI-8226 2.27 µM | RXF 393 27.7 µM | SF-268 5.3 µM | SF-295 4.76 µM | SF-539 6.53 µM | SK-MEL-28 > 28.1 µM | SK-MEL-2 > 44.9 µM | SK-MEL-5 3.99 µM | SK-OV-3 14.7 µM | SN12C 11.9 µM | SNB-19 6.89 µM | SNB-75 3.48 µM | SR > 100 µM | SW-620 15.2 µM | T47D 16.6 µM | TK-10 > 35.8 µM | U-251 4.14 µM | UACC-257 > 61.7 µM | UACC-62 6 µM | UO-31 34.1 µM
33 µM: HCT-15
